Test results taken from patent publication US20260109684A1, “QUINOLINE COMPOUNDS AS MODULATORS OF RAGE ACTIVITY AND USES THEREOF” (NEW YORK UNIVERSITY, priority 2022, published 2026).
pIC50, pKd: −log10 of the molar value.

Tests used:
ctRAGE = molecular target: T1, ctRAGE (Homo sapiens, UniProt Q15109); assay: Fluorescence binding titration assay (native tryptophan fluorescence); settings: 20 nM ctRAGE, 10 mM phosphate buffer pH 7.0, 5% DMSO
T1 construct: The cytoplasmic domain of RAGE, C terminal RAGE or ctRAGE (RAGE tail)
T1 sequence (Q15109 364-404 limits assumed): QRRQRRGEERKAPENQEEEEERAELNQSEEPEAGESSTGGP
Procedure: Native tryptophan fluorescence experiments were conducted using a Horiba Jobin Yvon Fluorolog spectrofluorometer. 1 mM of a compound was dissolved in 10 mM phosphate buffer [pH 7.0] and 50% DMSO. 20 nM ctRAGE solution was individually titrated from 0.1 nM-100 μM with the compounds in 100 μL of 10 mM phosphate buffer [pH 7.0] and 5% DMSO. The excitation and emission wavelengths were 280 nm and 352 nm, respectively. Dissociation constants, Kd, were estimated from the changes in peak fluorescence intensities as a function of the free compound concentration by using Prism 6 software (GraphPad). Data were fit to the equation, (F−F0)/Fmax=[compound]/(Kd+[compound]) where F is the fluorescence intensity at a given compound concentration, F0 is the fluorescence intensity of the blank, and Fmax is the maximum fluorescence intensity.

[1] = tested on: Murine primary aortic smooth muscle cells (SMC); assay: Murine primary aortic smooth muscle cell (SMC) migration, wounding assay; format: cell-based, mice; settings: Mus musculus; inhibition of migration; compounds incubated 1.5 h, then CML-AGE (10 μg/ml) or PDGF-BB (10 ng/ml) for 4 h
Procedure: Murine SMCs were cultured from the aortas of 10-week old male mice as described in M. B. Manigrasso, J. Pan, V. Rai, J. Zhang, S. Reverdatto, N. Quadri, R. J. DeVita, R. Ramasamy, A. Shekhtman, A. M. Schmidt, Small Molecule Inhibition of Ligand-Stimulated RAGE-DIAPH1 Signal Transduction. Scientific reports 6, 22450 (2016). Wild-type murine aortic SMCs were isolated and used between passages 8 to 12. Migration in response to the RAGE ligand CML-AGE (CML, 10 μg/ml) or a general effector, not a RAGE ligand, PDGF-BB, 10 ng/ml (R&D systems) was assessed with a wounding assay as also described in M. B. Manigrasso, J. Pan, V. Rai, J. Zhang, S. Reverdatto, N. Quadri, R. J. DeVita, R. Ramasamy, A. Shekhtman, A. M. Schmidt, Small Molecule Inhibition of Ligand-Stimulated RAGE-DIAPH1 Signal Transduction. Scientific reports 6, 22450 (2016). Briefly, cells were grown to confluence in 24-well plates and starved overnight. The following morning, serum free media (SFM) was removed and compounds were added per dose response. Immediately following the addition of compounds, the monolayer was wounded using a p10 pipette tip. The compounds were allowed to incubate for 1.5 h. Following this incubation, all compounds were removed and fresh media containing RAGE ligand, CML-AGE (10 μg/ml), or general effector, PDGF-BB (10 ng/ml), was added for 4 h. Cells were maintained at 37° C. and 5% CO2. Images were taken at 4 h. Each image was measured, and an area ingrowth of effective migrating cells was calculated. Results are shown in FIGS. 12-20 and Table 2 below.

ob ob mice = assay: Wound healing of full thickness excisional wounds in ob ob mice; format: in vivo; settings: male and female ob ob mice; 5 mg/kg twice daily topical, day 3 through day 10; days 14 and 21 post-surgery
Procedure: RAGE 406R was tested in male and female ob ob mice (model of obesity and type 2 diabetes) for potential benefits in wound healing. Full thickness excisional wounds were created on the backs of 8 week old ob ob mice, as described in Manigrasso et al., “Small-molecule antagonism of the interaction of the RAGE cytoplasmic domain with DIAPH1 reduces diabetic complications in mice,” Sci Transl Med. 13 (621):eabf7084 (2021). Beginning on day 3 after the surgery, mice received RAGE 406R (5 mg/kg) twice daily by topical administration under the Tegaderm through day 10 post-operatively. The wounds were photographed on days 0, 7, 14, and 21 and the % wound closure (compared to baseline) was calculated for each mouse. The Mean+/−Standard Error of the Mean is shown in FIGS. 23A-B along with representative images (FIGS. 23C-D).

| SMILES | pKd (ctRAGE) | pIC50 [1] | % wound closure compared to vehicle-treated animals (ob ob mice) |
| --- | --- | --- | --- |
| CN(C)Cc1ccc(-c2cc(CN3CCOCC3)c3ccc(C#N)cc3n2)cc1 [RAGE 299] | 8.10 | 7.03 | – |
| N#Cc1ccc2c(C(=O)N3CCOCC3)cc(-c3ccc(C4CCCN4)cc3)nc2c1 (centres unmarked) [RAGE 407] | 8.70 | 6.82 | – |
| N#Cc1ccc2c(CN3CCOCC3)cc(-c3ccc(C(=N)N)cc3)nc2c1 [RAGE 290] | 9.00 | 8.22 | – |
| N#Cc1ccc2c(CN3CCOCC3)cc(-c3ccc(CN)cc3)nc2c1 [RAGE 286, 2-(4-(aminomethyl)phenyl)-4-(morpholinomethyl)quinoline-7-carbonitrile] | 7.70 | 6.57 | – |
| N#Cc1ccc2c(CN3CCOCC3)cc(-c3ccc([C@H]4CCC(=O)N4)cc3)nc2c1 [RAGE 406R] | 9.22 | 9.00 | significantly higher wound closure |
| N#Cc1ccc2c(CN3CCOCC3)cc(-c3ccc(CCN)cc3)nc2c1 [RAGE 402, 2-(4-(2-aminoethyl)phenyl)-4-(morpholinomethyl)quinoline-7-carbonitrile] | 8.52 | 6.87 | – |

Continued, in another order:

| pKd (ctRAGE) | pIC50 [1] | SMILES | % wound closure compared to vehicle-treated animals (ob ob mice) |
| --- | --- | --- | --- |
| 8.70 | 5.93 | N#Cc1ccc2c(CN3CCOCC3)cc(-c3ccc([C@@H]4CCC(=O)N4)cc3)nc2c1 [RAGE 406S] | – |
| 8.52 | 7.74 | CC(=O)NCc1ccc(-c2cc(C(=O)N3CCOCC3)c3ccc(C#N)cc3n2)cc1 [RAGE 289, N-(4-(7-cyano-4-(morpholine-4-carbonyl)quinolin-2-yl)benzyl) acetamide] | – |
| 8.52 | 7.55 | N#Cc1ccc2c(CN3CCOCC3)cc(-c3ccc(C4CCC(=O)N4)cc3)nc2c1 (racemic) [RAGE 406] | – |
| 7.92 | – | N#Cc1ccc2c(CN3CCOCC3)cc(-c3ccc(CC(N)=O)cc3)nc2c1 [RAGE 291] | – |
| 9.00 | 8.59 | N#Cc1ccc2c(CN3CCOCC3)cc(-c3ccc(C(N)=O)cc3)nc2c1 [RAGE 283] | – |
| – | 6.04 | N#Cc1ccc2c(CN3CCOCC3)cc(-c3ccc(CN4CCCC4)cc3)nc2c1 [RAGE 401] | – |
